Results as given in patent US9580428B2, “Compositions and methods for inhibiting viral polymerase” (priority 2012, dated 2017).
Where “and” joins values, the source holds several entries; their conditions need not be identical. Equal entries are not always repeated. Structures can show the parent of a compound that is named as a salt. Where two headings read alike, the source gives them in different places. Marks after values point to notes of the source that are not given here.

Key:
[1] = test system: Punta Toro A2 (Vero 76 cells); experiment: microbe, parasite or virus in culture
[2] = test system: A/Vic/3/75 (H3N2); experiment: microbe, parasite or virus in culture; assay type: cell-based; settings: Influenza A virus
[3] = test system: H3N2 virus (A/Victoria/3/75); parameters: species or system BALB/c mice; settings: mouse, in vivo
[4] = test system: Influenza B Florida
[5] = test system: Yellow Fever 17D (Vero 76 cells); experiment: microbe, parasite or virus in culture
[6] = test system: Influenza A H1N1 CA/04/2009 (Pandemic HIN1)
[7] = test system: West Nile (Vero Cells); settings: African green monkey
[8] = test system: Respiratory Syncytial A2 (MA-104 cells); experiment: microbe, parasite or virus in culture; settings: human respiratory syncytial virus, MA104
[9] = test system: Influenza A H1N1 CA/04/2009 (Pandemic HIN1); remark: listed apart in the source
[10] = in vitro; settings: African green monkey
[11] = test system: Adenovirus type 165089/Chicago (A-549 cells); settings: human
[12] = test system: H3N2 virus (A/Victoria/3/75); parameters: species or system BALB/c mice; settings: mouse, in vivo; remark: listed apart in the source
[13] = test system: Rhinovirus 2 HGP (HeLa Ohio-1 cells); experiment: microbe, parasite or virus in culture; settings: Enterovirus, HeLa Ohio1
[14] = test system: Rhinovirus 2 HGP (HeLa Ohio-1 cells); settings: human
[15] = test system: Yellow fever virus (Jimenez strain); assay type: in vivo, Syrian golden hamsters; settings: 100 mg/kg
[16] = test system: Adenovirus type 165089/Chicago (A-549 cells); settings: human; remark: listed apart in the source
[17] = test system: SARS-CoV Urbani (Vero 76 cells); settings: African green monkey
[18] = test system: Yellow Fever 17D (Vero 76 cells); experiment: microbe, parasite or virus in culture; remark: listed apart in the source
[19] = in vitro; settings: African green monkey; remark: listed apart in the source
[20] = test system: Respiratory Syncytial A2 (MA-104 cells); experiment: microbe, parasite or virus in culture; settings: human respiratory syncytial virus, MA104; remark: listed apart in the source
[21] = test system: Punta Toro A2 (Vero 76 cells); experiment: microbe, parasite or virus in culture; remark: listed apart in the source
[22] = test system: Rhinovirus 2 HGP (HeLa Ohio-1 cells); experiment: microbe, parasite or virus in culture; settings: Enterovirus, HeLa Ohio1; remark: listed apart in the source
[23] = rat, in vivo, po; for AUC(0-inf) / Cmax / Tmax: male, Sprague-Dawley

## Cl.Cl.Nc1ncnc2c([C@@H]3N[C@H](CO)[C@@H](O)[C@H]3O)c[nH]c12 [compound 12i, (2S,3S,4R,5R)-2-(4-amino-5H-pyrrolo[3,2-d]pyrimidin-7-yl)-5-(hydroxymethyl)pyrrolidine-3,4-diol dihydrochloride]
[1]
  EC50: > 250 µg/mL
[2]
  EC50: 4 µg/mL
[3]
  Survival/Total: 10/10*
[3]; po
  Mean day to death (Mean ± SEM): >16 days
  Mean weight change (grams ± SEM) Day 9: 0.01 + 0.27** grams
  Survival/Total: 10/10*
[4]
  EC50: 1.8 µg/mL
[5]
  EC50: 8.3 µg/mL
[6]
  IC50 (50% cytotoxic dose): 0.21 µg/mL
[7]
  IC50 (50% cytotoxic dose): >0.1 µg/mL
[8]
  EC50: > 100 µg/mL
[9]
  IC50 (50% cytotoxic dose): 0.21 µg/mL
[10]
  IC50: > 100 µg/mL
[11]
  IC50 (50% cytotoxic dose): >0.1 µg/mL
[12]
  Mean day to death (Mean ± SEM): >16 days
[13]
  EC50: 56 µg/mL
[14]
  IC50 (50% cytotoxic dose): >0.1 µg/mL
[15]; 21 days
  Survival rate: 100%
[15]; hamster, in vivo, ip
  weight: weight gain over placebo and ribavirin
[15]; hamster, in vivo, ip, dihydrochloride
  Survival rate: 100% and 80%
[16]
  IC50 (50% cytotoxic dose): >0.1 µg/mL
[17]
  IC50 (50% cytotoxic dose): >0.1 µg/mL
[18]
  EC50: 8.3 µg/mL
[19]
  IC50: > 100 µg/mL
[20]
  EC50: > 100 µg/mL
[21]
  EC50: 310 µg/mL
[22]
  EC50: 57 µg/mL
[23]; 10 mg/kg
  AUC(0-inf): 219 ng·h
  Cmax: 123 ng/mL
  Tmax: 30 min

## CC(C)[C@H](N)C(=O)OC[C@H]1N[C@@H](c2c[nH]c3c(N)ncnc23)[C@H](O)[C@@H]1O [compound 30f, (S)-((2R,3R,4S,5S)-5-(4-amino-5H-pyrrolo[3,2-d]pyrimidin-7-yl)-3,4-dihydroxypyrrolidin-2-yl)methyl 2-amino-3-methylbutanoate Hydrochloride]
[23]; 10 mg/kg
  AUC(0-inf): 1076 ng·h
  Cmax: 527 ng/mL
  Tmax: 30 min
  bioavailability relative to compound 12i: approximately four-fold
[23]
  hydrolysis by plasma esterases to compound 12i: rapidly hydrolyze
